Laboratory results as given in PubChem BioAssay (NCI).
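Exposure lasted 48 hours, with cells grown in 96-well plates and compounds tested at five concentrations. GI50 marks 50% less growth. TGI: total growth inhibition.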

Columns and labels:
Experiment in all cases: NCI-60 cell line screen, 48 h
ACHN renal = test system: ACHN renal
DU-145 prostate = test system: DU-145 prostate
HCT-15 colon = test system: HCT-15 colon
HT29 colon = test system: HT29 colon
MDA-N = test system: MDA-N
NCI-H460 lung = test system: NCI-H460 lung
SNB-75 CNS = test system: SNB-75 CNS
SF-295 CNS = test system: SF-295 CNS
SF-539 CNS = test system: SF-539 CNS
SR leukemia = test system: SR leukemia

Structure (SMILES)	TGI (ACHN renal)	TGI (DU-145 prostate)	TGI (HCT-15 colon)	TGI (HT29 colon)	TGI (MDA-N)	TGI (NCI-H460 lung)	TGI (SNB-75 CNS)	TGI (SF-295 CNS)	TGI (SF-539 CNS)	TGI (SR leukemia)	GI50 (NCI-H460 lung)
COc1cc2c(cc1OC)C(=O)/C(=C/c1cc(C)cc(C)c1)C2	> 100 µM	6.23 µM	> 47.8 µM	0.835 µM	0.0621 µM	5.1 µM	> 100 µM	–	–	–	–
O=C(O)/C=C/c1ccc2c(c1)CC1(Cc3ccccc3C1)C2	> 100 µM	–	> 100 µM	> 100 µM	> 100 µM	–	–	> 100 µM	> 100 µM	62.3 µM	–
OC1COC2CC(Nc3ccccn3)OC12 (stereo unspecified)	> 100 µM	–	> 100 µM	> 100 µM	> 100 µM	> 100 µM	> 100 µM	> 100 µM	> 100 µM	> 100 µM	–
C[C@]12CC(c3ccccc3O1)C(C(=O)Nc1nc(C34CC5CC(CC(C5)C3)C4)cs1)C(=O)N2 (stereo partly specified)	> 100 µM	> 100 µM	> 100 µM	> 100 µM	–	> 100 µM	> 100 µM	–	–	> 100 µM	–
O=C(/C(=C\I)c1ccccc1)c1ccccc1	25.7 µM	19.2 µM	9.37 µM	4.95 µM	–	27.3 µM	> 39.5 µM	32.9 µM	35.1 µM	41 µM	–
CC12CCC(CC1)C(C)(C)O2	–	–	71.8 µM	128 µM	–	12.3 µM	115 µM	116 µM	90.1 µM	–	1240 nM
Clc1ccc(C[P+](c2ccccc2)(c2ccccc2)c2ccccc2)cc1Cl	31.2 µM	–	44.5 µM	11.9 µM	–	12.8 µM	5.1 µM	22.2 µM	14.5 µM	> 100 µM	–
C=C1C(=O)OC2CC(C)C3C4OC4C(O)C3(C)C(O)C12 (stereo unspecified)	–	–	77.6 µM	83.8 µM	–	62.9 µM	92.1 µM	98 µM	45.6 µM	–	–
CC(C)C1=CC(=O)[C@@](C)(C2[C@H](O)C[C@@]3(C)[C@@H]4CC=C5[C@@H](CC[C@@H](OC6OCC(O)C(O)C6OC6OC(C)C(O)C(O)C6O)C5(C)C)[C@]4(C)C(=O)C[C@]23C)O1 (stereo partly specified)	> 100 µM	> 100 µM	> 100 µM	> 100 µM	> 100 µM	> 100 µM	> 100 µM	> 100 µM	–	–	–
O=C(Nc1ccc(S(=O)(=O)/N=c2\ncccn2C(=O)C(C(F)(F)F)C(F)(F)F)cc1)C(C(F)(F)F)C(F)(F)F	> 100 µM	> 100 µM	> 100 µM	> 100 µM	> 100 µM	> 100 µM	> 100 µM	> 100 µM	> 100 µM	–	–
COc1cc(-c2c3c(cc4c2OCO4)[C@@H](Nc2ccc(-c4ccc(-c5ccc(N[C@@H]6c7cc8c(cc7C(c7cc(OC)c(O)c(OC)c7)[C@H]7C(=O)OC[C@H]67)OCO8)cc5)cc4)cc2)[C@H]2COC(=O)[C@@H]2C3)cc(OC)c1O (stereo partly specified)	11.3 µM	4.74 µM	4.79 µM	5.62 µM	–	10.7 µM	–	3.82 µM	–	–	–
COC1C(N(C)C)=C(c2ccccc2)C(=O)N2CCc3ccccc3C12 (stereo unspecified)	> 100 µM	> 100 µM	> 100 µM	> 100 µM	> 100 µM	–	> 100 µM	> 100 µM	> 100 µM	–	–
O=c1[nH]c(NCc2ccc(Cl)cc2)nc2nc[nH]c12	> 100 µM	> 100 µM	> 100 µM	> 100 µM	> 100 µM	> 100 µM	> 100 µM	> 100 µM	> 100 µM	–	–
C[C@@H]1CC(=O)C[C@@H]2CC[C@H]3[C@@H]4CC[C@H](OC(=O)c5cccc6cc7ccccc7nc56)[C@H]4CC[C@@H]3[C@H]21	29.3 µM	28.7 µM	36.6 µM	29.3 µM	26.3 µM	30.8 µM	36.5 µM	77.6 µM	38.6 µM	–	–
O=c1c(Cc2ccc(Cl)cc2)nnc2sc(-c3ccc(-c4ccc(Cl)cc4Cl)o3)nn12	> 100 µM	> 100 µM	> 100 µM	> 100 µM	> 100 µM	> 100 µM	–	> 100 µM	> 100 µM	–	–
C/C(N=NS(=O)(=O)c1ccc([N+](=O)[O-])cc1)=C1\C=CC=CN1O	> 100 µM	–	> 100 µM	> 100 µM	–	> 100 µM	> 100 µM	> 100 µM	> 100 µM	> 100 µM	–
CC(C)(NC(=O)OCc1ccccc1)C(=O)OC(=O)C(C)(C)NC(=O)OCc1ccccc1	> 100 µM	–	> 100 µM	> 100 µM	> 100 µM	> 100 µM	> 100 µM	> 100 µM	> 100 µM	–	–
CCc1c(-c2ccc(OC)cc2)oc(OC)c(C)c1=O	> 100 µM	> 100 µM	> 100 µM	> 100 µM	–	> 100 µM	> 100 µM	> 100 µM	> 100 µM	–	–
